What was measured:
[1] = tested on: Z138 mantle cell lymphoma tumour cell lines; assay: In vitro cytotoxicity, MTT assay; assay type: cell-based; conditions: Homo sapiens, Z-138; Z138 cells, exposed to the test compounds for 96 hours
How it was run: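 Z138 cells exposed to compounds for 96 hours, then MTT added for 4 hours. Formazan absorbance at 540 nm serves as the measure of viable cell number.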

USP7 = target: T1, USP7 (Homo sapiens, UniProt Q93009, C315A); assay: Inhibition of USP7 by Fluorescence Intensity (FLINT) readings, Ubiquitin-Rhodamine-110 substrate; assay type: biochemical; conditions: 0.25 nM His-His-USP7 (aa208-560), 60 minutes at 30° C. preincubation; Ki determined from IC50 according to Cer et al.
T1 construct: 0.25 nM His-His-USP7 (aa208-560, |C315A|) was incubated with compound; His-His (N)
How it was run: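 His-tagged USP7 (aa208-560, C315A), 0.25 nM, preincubated with compound 60 min at 30 °C in 100 mM Bicine pH 8.0, 0.01% Triton X-100, 1 mM TCEP, 10% DMSO. Ubiquitin-Rhodamine-110 (50 nM or 4 μM) added; kinetic fluorescence (Ex 485/Em 535 nm) over 21 min; IC50 from 11-point curves, Ki derived from IC50.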

T1 sequence (Q93009 208-560 C315A): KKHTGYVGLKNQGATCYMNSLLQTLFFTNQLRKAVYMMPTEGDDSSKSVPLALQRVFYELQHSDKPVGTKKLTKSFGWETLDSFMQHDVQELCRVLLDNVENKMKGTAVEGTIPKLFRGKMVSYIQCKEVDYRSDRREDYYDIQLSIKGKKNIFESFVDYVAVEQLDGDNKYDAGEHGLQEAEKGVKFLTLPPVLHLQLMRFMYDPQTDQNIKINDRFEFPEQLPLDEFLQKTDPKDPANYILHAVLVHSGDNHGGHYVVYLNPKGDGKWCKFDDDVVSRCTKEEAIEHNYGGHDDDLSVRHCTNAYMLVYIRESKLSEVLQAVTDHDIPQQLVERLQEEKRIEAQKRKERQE

Row | Structure (SMILES) | Ki (USP7) | IC50 [1]
1 | Cc1ccc(-c2nc(C)c(C(=O)N3CC[C@@H](C(=O)N4CCC(O)(Cn5cnc(Oc6cccc(OC(F)(F)F)c6)c(N)c5=O)CC4)[C@H](c4ccccc4)C3)s2)cn1 [Example 27, 5-amino-3-[(4-hydroxy-1-((3R,4R)-1-[4-methyl-2-(6-methylpyridin-3-yl)-1,3-thiazole-5-carbonyl]-3-phenylpiperidine-4carbonyl}piperidin-4-yl)methyl]-6-[3-(trifluoromethoxy)phenoxy]pyrimidin-4(3H)-one] | 8.8 nM | 17 nM
2 | Nc1c(Oc2ccc(F)cc2)ncn(CC2(O)CCN(C(=O)[C@@H]3CCN(C(=O)c4cscn4)C[C@H]3c3ccccc3)CC2)c1=O [Example 28, 5-amino-6-(4-fluorophenoxy)-3-[[4-hydroxy-1-[(3R,4R)-3-phenyl-1-thiazole-4-carbonyl)piperidine-4-carbonyl-4-piperidyl]methyl]pyrimidin-4-one] | 64.1 nM | 138 nM
3 | Nc1c(Oc2ccc(F)cc2)ncn(CC2(O)CCN(C(=O)[C@@H]3CCN(C(=O)c4cncc(C(F)(F)F)c4)C[C@H]3c3ccccc3)CC2)c1=O [Example 122, 5-amino-6-(4-fluorophenoxy)-3-[(4-hydroxy-1-{(3R,4R)-3-phenyl-1-[5-(trifluoromethyl)pyridine-3-carbonyl]piperidine-4-carbonyl}piperidin-4-yl)methyl]pyrimidin-4(3H)-one] | 13.6 nM | 23 nM
4 | Nc1c(Oc2ccc(F)cc2)ncn(CC2(O)CCN(C(=O)[C@@H]3CCN(C4(c5cccc(C(F)(F)F)c5)COC4)C[C@H]3c3ccccc3)CC2)c1=O [Example 152, 5-amino-6-(4-fluorophenoxy)-3-[[4-hydroxy-1-[(3R,4R)-3-phenyl-1-[3-[3-(trifluoromethyl)phenyl]oxetan-3-yl]piperidine-4-carbonyl]-4-piperidyl]methyl]pyrimidin-4-one] | 82 nM | 202 nM
5 | Cc1cc(C(=O)N2CC[C@@H](C(=O)N3CCC(O)(Cn4cnc(Oc5ccc(F)cc5)c(N)c4=O)CC3)[C@H](c3ccccc3)C2)cc(C)n1 [Example 97, 5-amino-3-({1-[(3R,4R)-1-(2,6-dimethylpyridine-4-carbonyl)-3-phenylpiperidine-4-carbonyl]-4-hydroxypiperidin-4-yl}methyl)-6-(4-fluorophenoxy)pyrimidin-4(3H)-one] | 9.8 nM | 42.7 nM
6 | Cc1ccc(-c2sc(C(=O)N3CC[C@@H](C(=O)N4CCC(O)(Cn5cnc(Oc6ccc(F)cc6)c(N)c5=O)CC4)[C@H](c4ccccc4)C3)c3c2OCCO3)cn1 [Example 68, 5-amino-6-(4-fluorophenoxy)-3-[(4-hydroxy-1-{(3R,4R)-1-[7-(6-methylpyridin-3-yl)-2,3-dihydrothieno[3,4-b][1,4]dioxine-5-carbonyl]-3-phenylpiperidine-4-carbonyl]piperidin-4-yl)methyl]pyrimidin-4(3H)-one] | 4 nM | 6.67 nM
7 | Nc1c(Oc2ccc(F)cc2)ncn(CC2(O)CCN(C(=O)[C@@H]3CCN(C4(c5ccccc5)COC4)C[C@H]3c3ccccc3)CC2)c1=O [Example 108, 5-amino-6-(4-fluorophenoxy)-3-[[4-hydroxy-1-((3R,4R)-3-phenyl-1-(3-phenyloxetan-3-yl)piperidine-4-carbonyl]-4-piperidyl]methyl]pyrimidin-4-one] | 63 nM | 50 nM
8 | COc1cc(Oc2ncn(C[C@@]3(O)CCN(C(=O)[C@@H]4CCN(Cc5ccnc(C)n5)C[C@H]4c4ccccc4)CC3(F)F)c(=O)c2N)ccc1C1CC1 [Example 188, 5-amino-6-(4-cyclopropyl-3-methoxy-phenoxy)-3-[[(4S)-3,3-difluoro-4-hydroxy-1-[(3R,4R)-1-[(2-methylpyrimidin-4-yl)methyl]-3-phenyl-piperidine-4-carbonyl]-4-piperidyl]methyl]pyrimidin-4-one] | 69.9 nM | 69 nM
9 | COc1cc(Oc2ncn(C[C@@]3(O)CCN(C(=O)[C@@H]4CCN(Cc5cccnn5)C[C@H]4c4ccccc4)CC3(F)F)c(=O)c2N)ccc1F [Example 214] | 48.3 nM | 31.3 nM
10 | Nc1c(Oc2ccc(F)cc2)ncn(CC2(O)CCN(C(=O)[C@@H]3CCN(Cc4cnccn4)C[C@H]3c3ccccc3)CC2)c1=O [Example 63] | 12.4 nM | 16.3 nM
11 | COc1cc(Oc2ncn(C[C@@]3(O)CCN(C(=O)[C@@H]4CCN(Cc5ccnc(C)n5)C[C@H]4c4ccccc4)CC3(F)F)c(=O)c2N)ccc1F [Example 149] | 14 nM | 24.1 nM
12 | Cc1nccc(CN2CC[C@@H](C(=O)N3CCC(O)(Cn4cnc(Oc5ccc(CO)cc5)c(N)c4=O)CC3)[C@H](c3ccccc3)C2)n1 [Example 200] | 30 nM | 106 nM
13 | Cc1ccc(-c2nc(C)c(C(=O)N3CC[C@@H](C(=O)N4CCC(O)(Cn5cnc(Oc6ccc(Cl)c(F)c6)c(N)c5=O)CC4)[C@H](c4ccccc4)C3)s2)cn1 [Example 24, 5-amino-6-(4-chloro-3-fluorophenoxy)-3-[(4-hydroxy-1-{(3R,4R)-1-[4-methy-2-(6-methylpyridin-3-yl)-1,3-thiazole-5-carbonyl]-3-phenylpiperidine-4-carbonyl}piperidin-4-yl)methyl]pyrimidin-4(3H)-one] | 4 nM | 9.9 nM
14 | Cc1nc(C2CCOCC2)sc1C(=O)N1CC[C@@H](C(=O)N2CCC(O)(Cn3cnc(Oc4ccc(F)cc4)c(N)c3=O)CC2)[C@H](c2ccccc2)C1 [Example 191, 5-amino-6-(4-fluorophenoxy)-3-[[4-hydroxy-1-[(3R,4R)-1-(4-methyl-2-tetrahydropyran-4-yl-thiazole-5-carbonyl)-3-phenyl-piperidine-4-carbonyl]-4-piperidyl]methyl]pyrimidin-4-one] | 17.7 nM | 20.1 nM
15 | Cc1nc(N2CCOCC2)sc1C(=O)N1CC[C@@H](C(=O)N2CCC(O)(Cn3cnc(Oc4ccc(F)cc4)c(N)c3=O)CC2)[C@H](c2ccccc2)C1 [Example 64, 5-amino-6-(4-fluorophenoxy)-3-[(4-hydroxy-1-{(3R,4R)-1-[4-methyl-2-(morpholin-4-yl)-1,3-thiazole-5-carbonyl]-3-phenylpiperidine-4-carbonyl)piperidin-4-yl)methyl]pyrimidin-4(3H)-one] | 6.4 nM | 8.39 nM
16 | Nc1c(Oc2ccc(F)cc2)ncn(C[C@@]2(O)CCN(C(=O)[C@@H]3CCN(Cc4ncccn4)C[C@H]3c3ccccc3)CC2(F)F)c1=O [Example 204] | 36.5 nM | 26.9 nM
17 | Cc1ccc(-c2nc(C)c(C(=O)N3CC[C@@H](C(=O)N4CCC(O)(Cn5cnc(Oc6cccc(C(F)(F)F)c6)c(N)c5=O)CC4)[C@H](c4ccccc4)C3)s2)cn1 [Example 26] | 6.1 nM | 20 nM

Further lines, with some results ahead:

Row | Ki (USP7) | Structure (SMILES) | IC50 [1]
18 | 8.8 nM | Cc1nc(C2CCOCC2)sc1C(=O)N1CC[C@@H](C(=O)N2CC[C@](O)(Cn3cnc(Oc4ccc(F)cc4)c(N)c3=O)C(F)(F)C2)[C@H](c2ccccc2)C1 [Example 192, 5-amino-3-[[(4S)-3,3-difluoro-4-hydroxy-1-[(3R,4R)-1-(4-methyl-2-tetrahydropyran-4-yl-thiazole-5-carbonyl)-3-phenyl-piperidine-4-carbonyl]-4-piperidyl]methyl]-6-(4-fluorophenoxy)pyrimidin-4-one] | 8.48 nM
19 | 3.6 nM | Cc1ccc(-c2nc(C)c(C(=O)N3CC[C@@H](C(=O)N4CC[C@](O)(Cn5cnc(Oc6ccc(F)cc6)c(N)c5=O)C(F)(F)C4)[C@H](c4ccccc4)C3)s2)cn1 [Example 45] | 1.4 nM
20 | 15 nM | Nc1c(Oc2ccc(F)cc2)ncn(C[C@@]2(O)CCN(C(=O)[C@@H]3CCN(C(=O)c4sc(I)cc4F)C[C@H]3c3ccccc3)CC2(F)F)c1=O [Example 104, 5-amino-3-[[(4S)-3,3-difluoro-1-[(3R,4R)-1-(3-fluoro-5-iodo-thiophene-2-carbonyl)-3-phenyl-piperidine-4-carbonyl]-4-hydroxy-4-piperidyl]methyl]-6-(4-fluorophenoxy)pyrimidin-4-one] | 37.2 nM
21 | 0.064 nM | Cc1ccc(-c2nc(C)c(C(=O)N3CC[C@@H](C(=O)N4CCC(O)(Cn5cnc(Oc6ccc(CN)cc6)c(N)c5=O)CC4)[C@H](c4ccccc4)C3)s2)cn1 [Example 131] | 5.3 nM
22 | 37.2 nM | Cc1cc(C)nc(CN2CC[C@@H](C(=O)N3CC[C@](O)(Cn4cnc(Oc5ccc(F)cc5)c(N)c4=O)C(F)(F)C3)[C@H](c3ccccc3)C2)n1 [Example 206, 5-amino-3-[[(4S)-1-[(3R,4R)-1-[(4,6-dimethylpyrimidin-2-yl)methyl]-3-phenyl-piperidine-4-carbonyl]-3,3-difluoro-4-hydroxy-4-piperidyl]methyl]-6(4-fluorophenoxy)pyrimidin-4-one] | 20.5 nM
23 | 0.215 nM | Cc1ccc(-c2nc(C)c(C(=O)N3CC[C@@H](C(=O)N4CC[C@](O)(Cn5cnc(Oc6ccc(CN)cc6)c(N)c5=O)C(F)(F)C4)[C@H](c4ccccc4)C3)s2)cn1 [Example 210] | 1.85 nM
24 | 3 nM | Cc1ccc(-c2nc(C)c(C(=O)N3CC[C@@H](C(=O)N4CCC(O)(Cn5cnc(Oc6ccc(Cl)cc6)c(N)c5=O)CC4)[C@H](c4ccccc4)C3)s2)cn1 [Example 22, 5-amino-6-(4-chlorophenoxy)-3-[(4-hydroxy-1-{(3R,4R)-1-[4-methyl-2-(6-methylpyridin-3-yl)-1,3-thiazole-5-carbonyl]-3-phenylpiperidine-4-carbonyl}piperidin-4-yl)methyl]pyrimidin-4(3H)-one] | 4 nM
25 | 18.1 nM | Cc1nc(-c2ccc(F)cc2)sc1C(=O)N1CC[C@@H](C(=O)N2CC[C@](O)(Cn3cnc(Oc4ccc(F)cc4)c(N)c3=O)C(F)(F)C2)[C@H](c2ccccc2)C1 [Example 44] | 7.4 nM
